# Key:
# human TLR7 = target: T1, human TLR7 (Homo sapiens, UniProt Q9NYK1); test: TLR7 reporter cell assay (HEK293 cells stably expressing human TLR7 with NF-κB-driven SEAP reporter); type: cell-based; conditions: 15-24 hours
# T1 construct: host or cells: HEK293
# T1 sequence (Q9NYK1 27-1049): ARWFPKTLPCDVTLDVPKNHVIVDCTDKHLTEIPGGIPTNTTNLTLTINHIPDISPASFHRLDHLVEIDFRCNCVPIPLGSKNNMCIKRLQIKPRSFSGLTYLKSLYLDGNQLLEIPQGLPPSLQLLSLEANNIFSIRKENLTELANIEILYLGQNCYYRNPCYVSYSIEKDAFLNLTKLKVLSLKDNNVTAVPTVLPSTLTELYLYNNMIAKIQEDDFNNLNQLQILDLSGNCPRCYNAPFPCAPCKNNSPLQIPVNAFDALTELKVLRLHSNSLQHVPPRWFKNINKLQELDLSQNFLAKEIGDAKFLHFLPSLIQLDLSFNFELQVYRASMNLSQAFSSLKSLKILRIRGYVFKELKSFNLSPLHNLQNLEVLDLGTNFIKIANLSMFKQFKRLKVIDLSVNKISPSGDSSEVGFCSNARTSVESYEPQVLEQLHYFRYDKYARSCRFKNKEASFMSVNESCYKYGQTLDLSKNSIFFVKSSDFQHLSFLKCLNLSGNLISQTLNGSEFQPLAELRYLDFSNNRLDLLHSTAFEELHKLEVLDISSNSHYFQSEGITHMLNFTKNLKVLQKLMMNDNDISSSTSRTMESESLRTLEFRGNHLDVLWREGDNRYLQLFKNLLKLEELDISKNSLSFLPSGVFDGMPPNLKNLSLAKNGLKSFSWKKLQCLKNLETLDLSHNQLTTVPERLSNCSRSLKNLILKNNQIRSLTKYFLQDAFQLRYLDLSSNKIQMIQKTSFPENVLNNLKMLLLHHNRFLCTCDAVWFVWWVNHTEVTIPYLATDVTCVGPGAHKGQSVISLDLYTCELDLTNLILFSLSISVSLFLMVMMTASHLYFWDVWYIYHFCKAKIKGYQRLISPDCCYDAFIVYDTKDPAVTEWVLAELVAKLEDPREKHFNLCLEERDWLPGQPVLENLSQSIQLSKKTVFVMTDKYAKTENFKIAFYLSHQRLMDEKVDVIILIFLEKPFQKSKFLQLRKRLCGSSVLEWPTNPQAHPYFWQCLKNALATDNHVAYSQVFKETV
# Summary of the method: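 HEK293 cells stably expressing human TLR7 with an NF-κB-driven SEAP reporter, treated with compound for 15-24 hours. SEAP read at OD 650 nm. EC50 fitted by nonlinear least squares, maximum set by 28.5 μM resiquimod.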
# human TLR8 = target: T2, human TLR8 (Homo sapiens, UniProt Q9NR97); test: TLR8 reporter cell assay (HEK293 cells stably expressing human TLR8 with NF-κB-driven SEAP reporter); type: cell-based; conditions: concentrations up to 500 μM; significant = >5% of ymax
# T2 construct: host or cells: HEK293
# T2 sequence (Q9NR97 27-1041): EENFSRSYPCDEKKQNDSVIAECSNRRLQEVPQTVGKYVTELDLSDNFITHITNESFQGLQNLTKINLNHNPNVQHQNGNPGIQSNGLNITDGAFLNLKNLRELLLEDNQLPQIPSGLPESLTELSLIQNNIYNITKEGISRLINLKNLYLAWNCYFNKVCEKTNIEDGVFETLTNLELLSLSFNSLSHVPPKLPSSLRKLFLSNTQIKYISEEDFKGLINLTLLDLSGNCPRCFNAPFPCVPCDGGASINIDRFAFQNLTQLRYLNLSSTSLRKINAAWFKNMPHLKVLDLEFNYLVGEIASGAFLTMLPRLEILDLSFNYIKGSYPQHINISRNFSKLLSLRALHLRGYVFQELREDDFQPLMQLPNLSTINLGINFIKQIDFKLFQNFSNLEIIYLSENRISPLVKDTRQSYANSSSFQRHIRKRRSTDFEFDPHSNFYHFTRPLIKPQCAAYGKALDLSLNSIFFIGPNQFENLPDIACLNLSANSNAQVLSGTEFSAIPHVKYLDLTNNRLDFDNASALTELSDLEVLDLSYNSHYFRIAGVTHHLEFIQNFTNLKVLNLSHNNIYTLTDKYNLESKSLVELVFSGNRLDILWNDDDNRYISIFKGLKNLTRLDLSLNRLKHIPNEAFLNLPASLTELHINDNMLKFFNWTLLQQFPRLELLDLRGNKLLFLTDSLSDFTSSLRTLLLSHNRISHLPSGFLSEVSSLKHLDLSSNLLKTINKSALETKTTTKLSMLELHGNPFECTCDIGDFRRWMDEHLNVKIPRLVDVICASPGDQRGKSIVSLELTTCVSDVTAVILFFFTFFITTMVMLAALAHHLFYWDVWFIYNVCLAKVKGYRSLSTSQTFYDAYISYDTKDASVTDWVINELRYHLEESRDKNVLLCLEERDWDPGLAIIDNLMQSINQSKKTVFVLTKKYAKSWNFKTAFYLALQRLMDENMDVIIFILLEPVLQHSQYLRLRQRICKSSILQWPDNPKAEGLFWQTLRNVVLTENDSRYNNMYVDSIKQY
# Excerpt: The engagement of TLRs by cognate ligands triggers downstream signaling cascades, leading to the activation of NF-κB and other transcription factors which initiate various immunomodulatory effects. The human embryonic kidney cell line, HEK293, is essentially non-responsive to TLR agonists, but ectopic expression of TLRs in these cells allows cognate agonists to activate endogenous NF-κB. Accordingly, the HEK293-TLR-NF-κB inducible reporter system is used to assay TLR agonists.
# HEK293 cell lines stably expressing human TLR7 or TLR8 together with an NF-κB-driven-secreted alkaline phosphatase (SEAP) reporter were invented at InvivoGen (San Diego, California, USA) and used to assess compounds of the present invention for TLR7 and TLR8 agonist activities. Cells were seeded at 2-5×10^4 cells/well in 96 well plates (200 μl/well) and treated with various concentrations of compound (10 μl) for 15-24 hours. SEAP activity was determined by measuring OD at 650 nm; the media used to culture the cell lines contains the reagents required for SEAP detection. […]
structure (smiles),measurement,setting,value
"CC[C@H](O)[C@@H]1C[C@@H](O)[C@H](n2c(=O)sc3c(=O)[nH]c(N)nc32)O1 [Compound A, 5-amino-3-((2R,3R,5S)-3-hydroxy-5-((S)-1-hydroxypropyl)tetrahydrofuran-2-yl)thiazolo[4,5-d]pyrimidine-2,7(3H,6H)-dione, reference compound]",Emax at 500 µM,"human TLR7; HEK293, 500 μM compound, SEAP activity (OD 650 nm) relative to 28.5 μM resiquimod, read-out: Response at 500 μM Compound as a Percent of Resiquimod Response",74%
same,EC50,"human TLR7; fit of SEAP dose response, ymax from 28.5 μM resiquimod",51 µM
same,activity in TLR8 reporter cell assay (% of ymax for TLR8 as measured at 28.5 μM resiquimod),human TLR8,> 5 % of ymax

# Reference: US12187759B2, “TLR7 agonists” (Primmune Therapeutics, Inc., priority 2019, dated 2025)
